Test: xn = mol fraction of the nth substance listed
Details: 101 kPa, Liquid

CCOS(=O)(=O)[O-].CCn1cc[n+](C)c1 [1-ethyl-3-methylimidazolium ethyl sulfate] + O
mass density [kg/m3]
Details | 278.15 K | 283.15 K | 288.15 K | 293.15 K | 298.15 K | 303.15 K | 308.15 K
x2 = 0 | 1250.63 | 1247.18 | 1243.79 | 1240.39 | 1237 | 1233.63 | 1230.27
x2 = 0.0136 | 1250.46 | 1246.91 | 1243.47 | 1240.09 | 1236.7 | 1233.31 | 1229.93
x2 = 0.0253 | 1250.19 | 1246.63 | 1243.21 | 1239.82 | 1236.42 | 1233.03 | 1229.65
x2 = 0.0415 | 1249.8 | 1246.24 | 1242.85 | 1239.46 | 1236.06 | 1232.67 | 1229.29
x2 = 0.0729 | 1249.17 | 1245.66 | 1242.27 | 1238.88 | 1235.48 | 1232.09 | 1228.7
x2 = 0.1429 | 1247.67 | 1244.26 | 1240.85 | 1237.44 | 1234.04 | 1230.64 | 1227.25
x2 = 0.2344 | 1245.53 | 1242.12 | 1238.69 | 1235.28 | 1231.86 | 1228.46 | 1225.06
x2 = 0.392 | 1239.94 | 1236.5 | 1233.06 | 1229.63 | 1226.2 | 1222.78 | 1219.36
x2 = 0.5695 | 1228.84 | 1225.35 | 1221.87 | 1218.47 | 1214.98 | 1211.55 | 1208.12
x2 = 0.7408 | 1207.89 | 1204.4 | 1200.9 | 1197.39 | 1193.86 | 1190.33 | 1186.78
x2 = 0.9032 | 1149.37 | 1146.18 | 1142.95 | 1139.65 | 1136.37 | 1133.02 | 1129.61
x2 = 0.9577 | 1094.19 | 1091.9 | 1089.5 | 1086.99 | 1084.4 | 1081.7 | 1078.89
x2 = 0.984 | 1045.11 | 1043.88 | 1042.43 | 1040.71 | 1038.74 | 1036.44 | 1033.81
x2 = 0.9923 | 1023.67 | 1022.91 | 1021.88 | 1020.61 | 1019.12 | 1017.42 | 1015.54
x2 = 0.9963 | 1012.18 | 1011.69 | 1010.85 | 1009.45 | 1008.24 | 1006.56 | 1004.39

CC1COC(=O)O1 (stereo not given) [4-methyl-1,3-dioxolan-2-one] + CCOS(=O)(=O)[O-].CCn1cc[n+](C)c1
mass density [kg/m3]
Details | 278.15 K | 283.15 K | 288.15 K | 293.15 K | 298.15 K | 303.15 K | 308.15 K
x1 = 0.0266 | 1250.69 | 1247.12 | 1243.68 | 1240.27 | 1236.86 | 1233.45 | 1230.06
x1 = 0.0513 | 1250.41 | 1246.82 | 1243.39 | 1239.97 | 1236.53 | 1233.11 | 1229.69
x1 = 0.0755 | 1250.13 | 1246.55 | 1243.1 | 1239.64 | 1236.19 | 1232.74 | 1229.3
x1 = 0.1231 | 1249.6 | 1246.04 | 1242.54 | 1239.04 | 1235.55 | 1232.06 | 1228.58
x1 = 0.1825 | 1248.89 | 1245.35 | 1241.79 | 1238.2 | 1234.68 | 1231.13 | 1227.6
x1 = 0.2548 | 1248.05 | 1244.41 | 1240.76 | 1237.11 | 1233.49 | 1229.88 | 1226.27
x1 = 0.3178 | 1247.17 | 1243.45 | 1239.73 | 1236.01 | 1232.32 | 1228.64 | 1224.96
x1 = 0.3778 | 1246.4 | 1242.61 | 1238.81 | 1235.04 | 1231.27 | 1227.52 | 1223.78
x1 = 0.4859 | 1244.38 | 1240.42 | 1236.47 | 1232.54 | 1228.62 | 1224.71 | 1220.83
x1 = 0.5725 | 1242.6 | 1238.5 | 1234.4 | 1230.34 | 1226.28 | 1222.25 | 1218.22
x1 = 0.6971 | 1239.08 | 1234.73 | 1230.4 | 1226.09 | 1221.79 | 1217.52 | 1213.25
x1 = 0.7812 | 1235.9 | 1231.35 | 1226.82 | 1222.31 | 1217.81 | 1213.33 | 1208.86
x1 = 0.8427 | 1232.95 | 1228.23 | 1223.51 | 1218.83 | 1214.15 | 1209.49 | 1204.84
x1 = 0.8893 | 1230.36 | 1225.48 | 1220.62 | 1215.78 | 1210.95 | 1206.14 | 1201.34
x1 = 0.9259 | 1227.81 | 1222.79 | 1217.79 | 1212.81 | 1207.84 | 1202.89 | 1197.94
x1 = 0.9554 | 1225.35 | 1220.2 | 1215.07 | 1209.96 | 1204.85 | 1199.76 | 1194.68
x1 = 0.9797 | 1223.22 | 1217.97 | 1212.73 | 1207.51 | 1202.3 | 1197.09 | 1191.9
x1 = 1 | 1220.93 | 1215.57 | 1210.21 | 1204.88 | 1199.55 | 1194.23 | 1188.91

CC(C)=O [acetone] + CCOS(=O)(=O)[O-].CCn1cc[n+](C)c1
x1 = 1
Details | mass density [kg/m3]
278.15 K | 807.75
283.15 K | 802.15
288.15 K | 796.52
293.15 K | 790.86
298.15 K | 785.13
303.15 K | 779.38
308.15 K | 773.58

CC#N [acetonitrile] + CCOS(=O)(=O)[O-].CCn1cc[n+](C)c1
x1 = 1
Details | mass density [kg/m3]
278.15 K | 798.01
283.15 K | 792.69
288.15 K | 787.33
293.15 K | 781.97
298.15 K | 776.56
303.15 K | 771.14
308.15 K | 765.68

— the NIST ThermoML archive (doi:10.1021/je1002237)
